Assays:
[1] = system: PC3 cells; experiment: Cellular membrane toxicity, LDH leakage assay; assay type: cell-based, human; conditions: PC3, 0.2-200 μM, 37° C.
Procedure: FIG. 6A-6B: Cellular membrane toxicity assays. […] Cells treated with lysis buffer were defined as having 100% LDH release. Mean±SE (N=3).
Cellular membrane toxicity: LDH assays were performed as we previously described (Cha et al., Cancer Research 2020, 80: 1615-1623).

[2] = system: DU145 cells; experiment: Annexin-V apoptosis assay by flow cytometry, DU145; assay type: cell-based, human; conditions: DU145, 48 hr; Ptxl 1 nM, p28 50 μM, aurA/aurB 0.5-50 μM
Procedure: (§1) FIG. 7A-7D: Determination of apoptotic cell death. Prostate cancer cell lines (7A: LNCaP, 7B: DU145 and 7C: PC3) and normal prostate CRL11611 cells (7D) were exposed to the indicated agents for 48 hr and stained using apoptosis assay kits according to the manufacturer's instructions. The samples were analyzed by flow cytometry. Mean±SE (N=3).
(§2) After 48 hr, annexin-V apoptosis assays (Thermo Fisher Scientific) were conducted to detect apoptotic cells. At least 10,000 cells in each case were analyzed by FACS (RRC, UIC).

[3] = system: DU145 prostate cancer cells; experiment: MTT cell viability assay, DU145 prostate cancer cells; assay type: cell-based, human; conditions: DU145 (p53-mutant, AR−), 24-72 hr; paclitaxel 1 nM
Text: (§3) Cell viability was detected by MTT assays, and the control (PBS-treated) cells were considered 100% viable. Mean±SE (N=3). *P<0.05, **P<0.01, ***P<0.001.
(§4) Cell lines and culture: Human cancer and noncancer (immortalized and nonimmortalized) cell lines were obtained from the American Type Culture Collection [prostate cancer (PC3, DU145 and LNCaP), normal prostate (CRL11611), breast cancer (MCF-7), ovarian cancer (SK-OV3 adenocarcinoma), lung cancer (A549)]. MDD2 breast cancer cells (p53 dominant-negative) were provided courtesy of Dr Andrei V. Gudkov, Roswell Park Cancer Institute. 20 All cell lines were cultured in MEM-E (Invitrogen) supplemented with 10% heat-inactivated fetal bovine serum (Atlanta Biological, Inc.), 100 units/mL penicillin, and 100 μg/mL streptomycin at 37° C. in 5% CO2.

[4] = system: normal prostate CRL11611 cells; experiment: Annexin-V apoptosis assay by flow cytometry, normal prostate CRL11611; assay type: cell-based, human; conditions: normal CRL11611, 48 hr; Ptxl 1 nM, p28 50 μM, aurA/aurB 0.5-50 μM
Procedure: as §1, §2

[5] = system: PC3 prostate cancer cells; experiment: MTT cell viability assay, PC3 prostate cancer cells; assay type: cell-based, human; conditions: PC3 (p53-null, AR−), 24-72 hr; paclitaxel 1 nM
Procedure: as §4

[6] = system: PC3 cells; experiment: JC-1 mitochondrial membrane potential assay; assay type: cell-based, human; conditions: PC3, 1, 10 and 100 μM
Procedure: Cells were stained by using JC-1 Mitochondrial Membrane Potential Assay Kits according to the manufacturer's instructions to measure mitochondrial membrane potential, and fluorescence was measured by flow cytometry. 9B, Caspase-3 is involved in aurB-induced apoptosis. […] The inhibitor was used at the indicated concentrations. Mean±SE (N=3).
JC-1 dye (Invitrogen) was used to determine mitochondrial membrane potential. […] After washing with PBS, trypsinized PC3 cells were incubated with JC-1 dye and analyzed by FACS.

[7] = system: LNCaP prostate cancer cells; experiment: MTT cell viability assay, LNCaP prostate cancer cells; assay type: cell-based, human; conditions: LNCaP (p53 wild-type, AR+), 24-72 hr; paclitaxel 1 nM
Procedure: as §4

[8] = system: PC3 cells; experiment: Annexin-V apoptosis assay by flow cytometry, PC3; assay type: cell-based, human; conditions: PC3, 48 hr; Ptxl 1 nM, p28 50 μM, aurA/aurB 0.5-50 μM
Procedure: as §1, §2

[9] = system: LNCaP cells; experiment: Annexin-V apoptosis assay by flow cytometry, LNCaP; assay type: cell-based, human; conditions: 48 hr, Ptxl 1 nM, p28 50 μM, aurA/aurB 0.5-50 μM
Procedure: as §1, §2

[10] = system: Human cancer cells; experiment: MTT cell viability assay, human cancer cell panel; assay type: cell-based; conditions: 5-100 μM, 24 hr, 37° C.
Procedure: as §3
Cytotoxicity assay: The MTT assay was performed as we previously described (Cha et al., Cancer Research 2020, 80: 1615-1623).

[11] = biological target: T1, mitochondrial ATP synthase gamma subunit (ATP5C) (Homo sapiens, UniProt P36542); experiment: Pull-down assay with biotin-labeled peptides and protein identification; assay type: binding; conditions: mitochondrial fraction of PC3 cells, biotin-labeled peptide, 16 hr at 4° C.
T1 construct: endogenous in cells; host or cells: PC3 human prostate cancer cells, mitochondrial fraction (detergent extract)
T1 sequence (P36542 26-298): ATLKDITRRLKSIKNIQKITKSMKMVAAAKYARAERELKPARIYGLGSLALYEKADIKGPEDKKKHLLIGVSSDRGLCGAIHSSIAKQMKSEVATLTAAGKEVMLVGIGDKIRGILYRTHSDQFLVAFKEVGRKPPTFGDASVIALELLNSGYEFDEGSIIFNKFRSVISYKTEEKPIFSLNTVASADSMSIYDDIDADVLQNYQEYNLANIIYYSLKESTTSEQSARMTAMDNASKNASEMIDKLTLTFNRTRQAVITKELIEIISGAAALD
Text: 8A, TEM image of PC3 cells. Representative TEM micrograph of aurB-treated cells depicting the intraritochondrial localization of aurB-GNRs (arrowheads) and mitochondria](Mt) swelling. Scale bar: 600 nm. Mt: mitochondria. […] Coomassie-stained SDS-PAGE gels are shown (8B). The protein band at ˜35 kDa (arrowhead) was identified as ATP5C using mass spectrometry analysis. The identified fragments are indicated in green underlined sequence (SEQ ID NO: 4)(8C).
Pull-down assay and protein identification: PC3 cells were washed twice with PBS, and the mitochondrial fraction was prepared with a Qproteome mitochondria isolation kit (Qiagen). […] The peptides were then preincubated with streptavidin-agarose beads for 4 hr. After washing, the beads were boiled, and the released proteins were subjected to SDS-PAGE analysis. A protein band of ˜35 kDa was subjected to microcapillary LC/MS/MS for protein identification (Harvard Medical School, Taplin Mass Spectrometry Facility). For IB, proteins were transferred to nitrocellulose membranes. After blocking with 5% BSA in TBST, the membranes were incubated with anti-ATP5C antibody at 1:25,000 in 5% BSA/TBST (Abcam) for 16 hr at 4° C. The secondary antibody was applied (anti-goat IgG-HRP; Santa Cruz Biotechnology). The signal was detected using enhanced chemiluminescence (ECL).

[12] = Water solubility of peptides

With “LVK GGE AEA ANI ANA GLS AGP AAN YLPA [aurA]” the “cellular membrane toxicity (LDH release)” value [1] was “Neither aurA nor aurB induced cellular membrane toxicity at any concentrations”, the apoptotic cell death [2] was “very little effect” and the “cytotoxic effect (MTT cell viability)” value [3] was “not active”. The apoptotic cell death [4] was “very little effect”, the “cytotoxic effect (MTT cell viability)” value [5] was “not active” and the “effect on mitochondrial membrane potential (JC-1)” value [6] was “did not impact”. For the same substance, the “cytotoxic effect (MTT cell viability)” value [7] was “not active”, the apoptotic cell death [8] was “very little effect” and the apoptotic cell death [9] was “very little effect”. For the same substance, the “anti-proliferative effect (MTT cell viability)” value [10] was “little effect at any concentration tested”, the “binding to ATP5C (pull-down of ~35 kDa protein, IB)” value [11] was “did not” and the water solubility [12] was “highly water-soluble”.

From patent US20250179126A1, “A NOVEL PEPTIDE FROM A PHOTOSYNTHETIC BACERIUM DIRECTLY TARGETS MITOCHONDRIA TO TRIGGER APOPTOSIS IN ADVANCED PROSTATE CANCER CELLS” (priority 2022, published 2025)
